According to the supplement of paper PMC10307832:

What was measured:
Experiment in all cases: relative viability (nuclei count vs DMSO), 5 days (fraction); higher = more cells survive
Ponatinib + Linsitinib = compound: Cc1ccc(C(=O)Nc2ccc(CN3CCN(C)CC3)c(C(F)(F)F)c2)cc1C#Cc1cnc2cccnn12 [Ponatinib] + C[C@]1(O)C[C@@H](c2nc(-c3ccc4ccc(-c5ccccc5)nc4c3)c3c(N)nccn32)C1 [Linsitinib] (partner 1 µM)
In short: (§1)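 Medians of duplicate plates are given as relative viability. That measure is the nuclei count in treated wells divided by the count in vehicle wells. Counts were taken on 4× images of lung cancer cell lines in 1536-well plates, 5 days after pin-tool dosing the day after seeding with one drug alone or a fixed anchor-drug dose plus five library-drug doses (not always all listed) in √10 steps.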

Ponatinib + Dasatinib = compound: Cc1ccc(C(=O)Nc2ccc(CN3CCN(C)CC3)c(C(F)(F)F)c2)cc1C#Cc1cnc2cccnn12 [Ponatinib] + Cc1nc(Nc2ncc(C(=O)Nc3c(C)cccc3Cl)s2)cc(N2CCN(CCO)CC2)n1 [Dasatinib] (partner 0.075 µM)
In short: as §1

Ponatinib + Pemetrexed = compound: Cc1ccc(C(=O)Nc2ccc(CN3CCN(C)CC3)c(C(F)(F)F)c2)cc1C#Cc1cnc2cccnn12 [Ponatinib] + Nc1nc2[nH]cc(CCc3ccc(C(=O)N[C@@H](CCC(=O)O)C(=O)O)cc3)c2c(=O)[nH]1 [Pemetrexed] (partner 0.2 µM)
In short: as §1

Pazopanib + Lapatinib = compound: Cc1ccc(Nc2nccc(N(C)c3ccc4c(C)n(C)nc4c3)n2)cc1S(N)(=O)=O [Pazopanib] + CS(=O)(=O)CCNCc1ccc(-c2ccc3ncnc(Nc4ccc(OCc5cccc(F)c5)c(Cl)c4)c3c2)o1 [Lapatinib] (partner 2 µM)
In short: as §1

| Cell Line | relative viability (Ponatinib + Linsitinib; first compound 0.002 µM) | relative viability (Ponatinib + Linsitinib; first compound 0.006325 µM) | relative viability (Ponatinib + Linsitinib; first compound 0.06325 µM) | relative viability (Ponatinib + Linsitinib; first compound 0.2 µM) | relative viability (Ponatinib + Dasatinib; first compound 0.002 µM) | relative viability (Ponatinib + Dasatinib; first compound 0.006325 µM) | relative viability (Ponatinib + Dasatinib; first compound 0.06325 µM) | relative viability (Ponatinib + Dasatinib; first compound 0.2 µM) | relative viability (Ponatinib + Pemetrexed; first compound 0.002 µM) | relative viability (Ponatinib + Pemetrexed; first compound 0.006325 µM) | relative viability (Ponatinib + Pemetrexed; first compound 0.06325 µM) | relative viability (Ponatinib + Pemetrexed; first compound 0.2 µM) | relative viability (Pazopanib + Lapatinib; first compound 0.01 µM) | relative viability (Pazopanib + Lapatinib; first compound 0.03162 µM) | relative viability (Pazopanib + Lapatinib; first compound 0.1 µM) | relative viability (Pazopanib + Lapatinib; first compound 0.3162 µM) | relative viability (Pazopanib + Lapatinib; first compound 1 µM) |
| --- | --- | --- | --- | --- | --- | --- | --- | --- | --- | --- | --- | --- | --- | --- | --- | --- | --- |
| A-427 | 1.06 | 1.09 | 1.21 | 0.981 | 0.696 | 0.784 | 0.721 | 0.481 | 0.928 | 0.986 | 0.981 | 0.908 | 0.992 | 1.07 | 1 | 1.06 | 1.22 |
| NCI-H460 | 0.74 | 0.795 | 1.1 | 0.744 | 0.45 | 0.536 | 0.584 | 0.462 | 0.06 | 0.062 | 0.0629 | 0.0632 | 1.05 | 1.06 | 1.04 | 0.946 | 1.15 |
| NCI-H1703 | 0.641 | 0.827 | 0.364 | 0.25 | – | – | – | – | – | – | – | – | 1.09 | 0.629 | 0.41 | 0.354 | 0.286 |
| NCI-H1792 | 0.525 | 0.591 | 0.572 | 0.521 | 0.726 | 0.795 | 0.886 | 0.542 | 0.698 | 0.849 | 1.14 | 0.746 | – | 0.863 | 0.918 | 0.847 | 0.823 |
| Calu-6 | 0.956 | 0.964 | 0.932 | 0.747 | – | – | – | – | – | – | – | – | 1.07 | 1.14 | 1.21 | 0.999 | 0.96 |
| SW 1573 | 0.838 | 0.775 | 0.777 | 0.819 | 0.451 | 0.507 | 0.466 | 0.485 | 0.841 | 0.802 | 0.835 | 0.838 | 0.996 | 1.1 | 1.14 | 1.27 | 1.41 |
| RERF-LC-KJ | 0.842 | 0.907 | 0.914 | 0.827 | 0.707 | 0.824 | 0.93 | 0.844 | 0.468 | 0.492 | 0.486 | 0.453 | 0.761 | 0.758 | 0.815 | 0.734 | 0.799 |
| EMC-BAC-2 | 0.82 | 0.824 | 0.914 | 0.776 | 0.335 | 0.319 | 0.323 | 0.305 | 0.436 | 0.404 | 0.468 | 0.395 | 0.735 | 0.921 | 0.915 | 0.904 | 0.991 |
| LK-2 | 0.599 | 0.623 | 0.592 | 0.351 | – | 0.268 | 0.196 | 0.158 | 0.281 | 0.305 | 0.186 | 0.247 | 0.764 | 0.804 | 0.959 | 1 | 0.952 |
| NCI-H2126 | 0.735 | 0.703 | 0.793 | 0.809 | 0.554 | 0.564 | 0.65 | 0.531 | 0.835 | 0.757 | 0.818 | 0.658 | 0.611 | 0.713 | 0.81 | 0.715 | 0.821 |
